1 compound from ChEMBL document CHEMBL5365556 (ACS Med Chem Lett, 2023) can be followed below.

This experiment concerns THP-1. The experiment is described as follows: Cytotoxicity against human THP-1 cells assessed as reduction in cell viability measured after 24 hrs by Celltiter-Glo assay. It counts as functional, cell-based. The following applies: THP-1, 24 h.

Take `CCN(CC)C(=S)SSC(=S)N(CC)CC`: the IC50 was 7 µM.
